Experiment [1] has as its target Bcl-2 protein (histag-Bcl-2, UniProtKB P10415) (Homo sapiens (Human), UniProt P10415). As to the kind of experiment: Inhibition of Bcl-2 by the fluorescence polarisation technique. As to conditions: incubation for 2 hours, read-out: IC50 (nM) Bcl-2 FP. It counts as binding. Put shortly: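 In pH 7.4 buffer (Hepes 10 mM, NaCl 150 mM, Tween20 0.05%), test compounds at increasing concentrations competed with a fluorescein peptide (1.00×10^−8 M final) for histag-Bcl-2 (2.50×10^−8 M final). Readout was fluorescence polarisation after a 2 h incubation.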
A general note: In fluorescence polarisation assays a small probe gives low polarisation when free and higher when bound to something large.

The subject of experiment [2] is RS4;11 leukaemia tumour line. As to the kind of experiment: In vitro cytotoxicity (Microculture Tetrazolium Assay). As to conditions: Homo sapiens, RS4-11, 48 h, RS4;11 cells, exposed for 48 hours, cell viability; read-out: IC50 (nM) MTT RS4;11. It counts as cell-based. On the procedure: The cytotoxicity studies were carried out on the RS4;11 leukaemia tumour line.
The cells are distributed onto microplates and exposed to the test compounds for 48 hours.
The cell viability is then quantified by a colorimetric assay, the Microculture Tetrazolium Assay (Cancer Res., 1987, 47, 939-942).

Where a name gives a salt, the structure may show the parent alone.

By IC50 is commonly meant the concentration needed to halve the response being measured.

Bcl-2 protein, sequence (P10415 whole entry): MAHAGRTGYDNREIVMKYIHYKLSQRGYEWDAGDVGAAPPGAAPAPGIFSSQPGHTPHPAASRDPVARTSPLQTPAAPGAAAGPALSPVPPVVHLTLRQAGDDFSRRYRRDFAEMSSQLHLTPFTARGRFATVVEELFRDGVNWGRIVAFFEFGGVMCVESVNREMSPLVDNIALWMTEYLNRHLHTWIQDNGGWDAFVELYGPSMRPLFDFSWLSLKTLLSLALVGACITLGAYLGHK

As for `Cc1c(C(=O)N(c2ccc(O)cc2)c2cccc(C#N)c2)cc(-c2cc(Cl)ccc2C(=O)N2Cc3ccccc3C[C@H]2CN2CCOCC2)n1C` [Example 398, 5-(5-Chloro-2-{[(3S)-3-(morpholin-4-ylmethyl)-3,4-dihydroisoquinolin-2(1H)-yl]carbonyl}phenyl)-N-(3-cyanophenyl)-N-(4-hydroxyphenyl)-1,2-dimethyl-1H-pyrrole-3-carboxamide hydrochloride], the concentration for half-maximal inhibition (IC50) is 3.9 nM in experiment [1] and 13.4 nM in experiment [2].

With `Cc1c(C(=O)N(c2ccc(O)c(F)c2)c2cnn(C)c2)cc(-c2cc(Cl)ccc2C(=O)N2Cc3ccccc3C[C@H]2CN2CCOCC2)n1C` [Example 399, 5-(5-Chloro-2-{[(3S)-3-(morpholin-4-ylmethyl)-3,4-dihydroisoquinolin-2(1H)-yl]carbonyl}phenyl)-N-(3-fluoro-4-hydroxyphenyl)-1,2-dimethyl-N-(1-methyl-1H-pyrazol-4-yl)-1H-pyrrole-3-carboxamide hydrochloride], the values for the IC50 in experiment [1] and in experiment [2] were 9.9 nM and 155 nM, respectively.

As to `COC(=O)c1ccnc(N(C(=O)c2cc(-c3cc(Cl)ccc3C(=O)N3Cc4ccccc4C[C@H]3CN3CCOCC3)n(C)c2C)c2ccc(O)cc2)c1` [Example 400, Methyl 2-[{[5-(5-chloro-2-{[(3S)-3-(morpholin-4-ylmethyl)-3,4-dihydroisoquinolin-2(1H)-yl]carbonyl}phenyl)-1,2-dimethyl-1H-pyrrol-3-yl]carbonyl}(4-hydroxyphenyl)amino]pyridine-4-carboxylate hydrochloride], the IC50 was 49 nM in experiment [1] and 469 nM in experiment [2].

Regarding `Cc1c(C(=O)N(c2ccc(O)cc2)c2ccc(F)c(C#N)c2)cc(-c2cc(Cl)ccc2C(=O)N2Cc3ccccc3C[C@H]2CN2CCOCC2)n1C` [Example 401, 5-(5-Chloro-2-{[(3S)-3-(morpholin-4-ylmethyl)-3,4-dihydroisoquinolin-2(1H)-yl]carbonyl}phenyl)-N-(3-cyano-4-fluorophenyl)-N-(4-hydroxyphenyl)-1,2-dimethyl-1H-pyrrole-3-carboxamide hydrochloride], the IC50 came to 8 nM in experiment [1] and 24.3 nM in experiment [2].

`Cc1c(C(=O)N(c2ccc(O)cc2)c2ccnc(C#N)n2)cc(-c2cc(Cl)ccc2C(=O)N2Cc3ccccc3C[C@H]2CN2CCOCC2)n1C` [Example 404, 5-(5-Chloro-2-{[(3S)-3-(morpholin-4-ylmethyl)-3,4-dihydroisoquinolin-2(1H)-yl]carbonyl}phenyl)-N-(2-cyanopyrimidin-4-yl)-N-(4-hydroxyphenyl)-1,2-dimethyl-1H-pyrrole-3-carboxamide hydrochloride]: the concentration for half-maximal inhibition (IC50) turned out to be 24.4 nM in experiment [1] and 85.5 nM in experiment [2].

For the compound `Cc1c(N(C(=O)c2cc(-c3ccccc3C(=O)N3Cc4ccccc4C[C@H]3CN3CCOCC3)n(C)c2C)c2ccc(O)cc2)cc(C#N)n1C` [Example 406, N-(5-Cyano-1,2-dimethyl-1H-pyrrol-3-yl)-N-(4-hydroxyphenyl)-1,2-dimethyl-5-(2-{[(3S)-3-(morpholin-4-ylmethyl)-3,4-dihydroisoquinolin-2(1H)-yl]carbonyl}phenyl)-1H-pyrrole-3-carboxamide hydrochloride], the IC50 in experiment [1] was found to be 4.2 nM; in experiment [2] it was 10.6 nM.

In the case of `COc1ccc(C(=O)N2Cc3ccccc3C[C@H]2CN2CCOCC2)c(-c2cc(C(=O)N(c3ccc(O)c(F)c3)c3cnn(C)c3)c(C)n2C)c1` [Example 407, N-(3-Fluoro-4-hydroxyphenyl)-5-(5-methoxy-2-{[(3S)-3-(morpholin-4-ylmethyl)-3,4-dihydroisoquinolin-2(1H)-yl]carbonyl}phenyl)-1,2-dimethyl-N-(1-methyl-1H-pyrazol-4-yl)-1H-pyrrole-3-carboxamide hydrochloride], the IC50 amounted to 20.6 nM in experiment [1] and 150 nM in experiment [2].

As for `COc1ccc(C(=O)N2Cc3ccccc3C[C@H]2CN2CCOCC2)c(-c2cc(C(=O)N(c3ccc(O)cc3)c3cc(C#N)n(C)c3C)c(C)n2C)c1` [Example 408, N-(5-Cyano-1,2-dimethyl-1H-pyrrol-3-yl)-N-(4-hydroxyphenyl)-5-(5-methoxy-2-{[(3S)-3-(morpholin-4-ylmethyl)-3,4-dihydroisoquinolin-2(1H)-yl]carbonyl}phenyl)-1,2-dimethyl-1H-pyrrole-3-carboxamide hydrochloride], the figures for the concentration for half-maximal inhibition (IC50) in experiment [1] and in experiment [2] were 5.4 nM and 4.46 nM, respectively.

On to `Cc1c(C(=O)N(c2ccc(O)cc2)c2cnc3c(ccn3C)c2)cc(-c2ccccc2C(=O)N2Cc3ccccc3C[C@H]2CN2CCOCC2)n1C` [Example 409, N-(4-Hydroxyphenyl)-1,2-dimethyl-N-(1-methyl-1H-pyrrolo[2,3-b]-pyridin-5-yl)-5-(2-{[(3S)-3-(morpholin-4-ylmethyl)-3,4-dihydroisoquinolin-2(1H)-yl]-carbonyl}phenyl)-1H-pyrrole-3-carboxamide hydrochloride], for which the IC50 in experiment [1] came to 12.2 nM; in experiment [2], 41.9 nM.

For the compound `Cc1c(C(=O)N(c2ccc(O)cc2)c2cnc3c(c2)CCN3C)cc(-c2ccccc2C(=O)N2Cc3ccccc3C[C@H]2CN2CCOCC2)n1C` [Example 410, N-(4-Hydroxyphenyl)-1,2-dimethyl-N-(1-methyl-2,3-dihydro-1H-pyrrolo[2,3-b]pyridin-5-yl)-5-(2-{[(3S)-3-(morpholin-4-ylmethyl)-3,4-dihydroisoquinolin-2(1H)-yl]carbonyl}phenyl)-1H-pyrrole-3-carboxamide hydrochloride], the IC50 in experiment [1] was 9.9 nM; in experiment [2] it was 61.6 nM.

As for `Cc1c(C(=O)N(c2ccc(O)cc2)c2cnn(C)c2)cc(-c2cc(Cl)ccc2C(=O)N2Cc3ccccc3C[C@H]2C)n1CCN1CCOCC1` [Example 411, 5-(5-Chloro-2-{[(3R)-3-methyl-3,4-dihydroisoquinolin-2(1H)-yl]carbonyl}phenyl)-N-(4-hydroxyphenyl)-2-methyl-N-(1-methyl-1H-pyrazol-4-yl)-1-[2-(morpholin-4-yl)ethyl]-1H-pyrrole-3-carboxamide hydrochloride], the IC50 in experiment [1] came out at 5.5 nM; in experiment [2] it was 32.8 nM.

`Cc1c(N(C(=O)c2cc(-c3cc(Cl)ccc3C(=O)N3Cc4ccccc4C[C@H]3CCCN3CCOCC3)n(C)c2C)c2ccc(O)cc2)cc(C#N)n1C` [Example 412, 5-(5-Chloro-2-{[(3R)-3-[3-(morpholin-4-yl)propyl]-3,4-dihydroisoquinolin-2(1H)-yl]carbonyl}phenyl)-N-(5-cyano-1,2-dimethyl-1H-pyrrol-3-yl)-N-(4-hydroxyphenyl)-1,2-dimethyl-1H-pyrrole-3-carboxamide hydrochloride]: the figures for the 50% inhibitory concentration (IC50) in experiment [1] and in experiment [2] were 3.1 nM and 0.398 nM, respectively.

On to `Cc1c(N(C(=O)c2cc(-c3cc4c(cc3C(=O)N3Cc5ccccc5C[C@H]3CN3CCOCC3)OCCO4)n(C)c2C)c2ccc(O)cc2)cc(C#N)n1C` [Example 413, N-(5-Cyano-1,2-dimethyl-1H-pyrrol-3-yl)-N-(4-hydroxyphenyl)-1,2-dimethyl-5-(7-{[(3S)-3-(morpholin-4-ylmethyl)-3,4-dihydroisoquinolin-2(1H)-yl]-carbonyl}-2,3-dihydro-1,4-benzodioxin-6-yl)-1H-pyrrole-3-carboxamide hydrochloride], for which the results for the IC50 in experiment [1] and in experiment [2] were 3.1 nM and 9.43 nM, respectively.

Source of the values: patent US9108983B2, “Pyrrole compounds, a process for their preparation and pharmaceutical compositions containing them” (LES LABORATOIRES SERVIER, priority 2013, dated 2015).
